Experimental data from patent EP4238971A1, “SUBSTITUTED ISOXAZOLINE DERIVATIVES” (BASF SE, priority 2022, dated 2023).

Columns and labels:
Assay type in all cases: in vivo
Dichromothrips corbetti = assay: Orchid thrips (Dichromothrips corbetti), floral-immersion technique; conditions: for mortality in comparison with untreated controls: 300ppm, adult thrips, mortality recorded 72 hours after treatment
Description: B.6. Orchid thrips (Dichromothrips corbetti)
Dichromothrips corbetti adults used for bioassay were obtained from a colony maintained continuously under laboratory conditions. For testing purposes, the test compound was diluted in a 1:1 mixture of acetone:water (vol:vol), plus Kinetic at a rate of 0.01% v/v.
Thrips potency of each compound was evaluated by using a floral-immersion technique. Each orchid petal was dipped into treatment solution and allowed to dry in Petri dishes. Treated petals were placed into individual re-sealable plastic along with about 20 adult thrips. All test arenas were held under dark condition and a temperature of about 28°C for duration of the assay. The percent mortality was recorded 72 hours after treatment.

Spodoptera eridania = assay: Southern armyworm (Spodoptera eridania), 2nd instar larvae, sprayed lima bean plants; conditions: for mortality in comparison with untreated controls: 300ppm, 2nd instar larvae, assessed 4 days after treatment
Description: B.7. Southern armyworm (Spodoptera eridania), 2nd instar larvae
The active compounds were formulated by a Tecan liquid handler in 100% cyclohexanone as a 10'000 ppm solution supplied in tubes. The 10'000 ppm solution was serially diluted in 100% cyclohexanone to make interim solutions. These served as stock solutions for which final dilutions were made by the Tecan in 50% acetone:50% water (v/v) into 10 or 20ml glass vials. A nonionic surfactant (Kinetic®) was included in the solution at a volume of 0.01% (v/v). The vials were then inserted into an automated electrostatic sprayer equipped with an atomizing nozzle for application to plants/insects. Lima bean plants (variety Sieva) were grown 2 plants to a pot and selected for treatment at the 1st true leaf stage. Test solutions were sprayed onto the foliage by an automated electrostatic plant sprayer equipped with an atomizing spray nozzle. The plants were dried in the sprayer fume hood and then removed from the sprayer. Each pot was placed into perforated plastic bags with a zip closure. Ten to 11 armyworm larvae were placed into the bag and the bags zipped closed. Test plants were maintained in a growth room at about 25°C and about 20-40% relative humidity for 4 days, avoiding direct exposure to fluorescent light (14:10 light:dark photo-period) to prevent trapping of heat inside the bags. Mortality and reduced feeding were assessed 4 days after treatment, compared to untreated control plants.

Bemisia argentifolii = assay: Silverleaf whitefly (Bemisia argentifolii) adults, sprayed cotton plants; conditions: for mortality in comparison with untreated controls: 300 ppm, adults, assessed 3 days after treatment
Description: B.8. Silverleaf whitefly (Bemisia argentifolii) (adults)
The active compounds were formulated by a Tecan liquid handler in 100% cyclohexanone as a 10,000-ppm solution supplied in tubes. The 10,000-ppm solution was serially diluted in 100% cyclohexanone to make interim solutions. These served as stock solutions for which final dilutions were made by the Tecan in 50% acetone:50% water (v/v) into 5 or 10ml glass vials. A nonionic surfactant (Kinetic®) was included in the solution at a volume of 0.01% (v/v). The vials were then inserted into an automated electrostatic sprayer equipped with an atomizing nozzle for application to plants/insects. Cotton plants at the cotyledon stage (one plant per pot) were sprayed by an automated electrostatic plant sprayer equipped with an atomizing spray nozzle. The plants were dried in the sprayer fume hood and then removed from the sprayer. Each pot was placed into a plastic cup and about 10 to 12 whitefly adults (approximately 3-5 days old) were introduced. The insects were collected using an aspirator and a nontoxic Tygon® tubing connected to a barrier pipette tip. The tip, containing the collected insects, was then gently inserted into the soil containing the treated plant, allowing insects to crawl out of the tip to reach the foliage for feeding. Cups were covered with a reusable screened lid. Test plants were maintained in a growth room at about 25°C and about 20-40% relative humidity for 3 days, avoiding direct exposure to fluorescent light (14:10 light:dark photoperiod) to prevent trapping of heat inside the cup. Mortality was assessed 3 days after treatment, compared to untreated control plants.

Plutella xylostella = assay: Diamond back moth (Plutella xylostella), cabbage leaf disc dip test; conditions: for mortality in comparison with untreated controls: 300ppm, 3rd instar larvae, mortality recorded 72 hours after treatment
Description: B.5. Diamond back moth (Plutella xylostella)
The active compound was dissolved at the desired concentration in a mixture of 1:1 (vol:vol) distilled water: acetone. Surfactant (Kinetic) was added at a rate of 0.01% (vol/vol). The test solution was prepared at the day of use. Cabbage leaf discs (60mm in diameter) were dipped in test solution and air-dried. Treated leaves were placed in petri dishes lined with moistened filter paper and inoculated with ten 3rd instar larvae. Mortality was recorded 72 hours after treatment. Feeding damages were also recorded using a scale of 0-100%.

Aedes aegypti = assay: whole plant or invertebrate; conditions: larval mortality visually assessed after 2 days; for mortality in comparison with untreated controls: 2500ppm
Description: (§1) If not otherwise specified, the test solutions were prepared as follows: The active compound was dissolved at the desired concentration in a mixture of 1:1 (vol:vol) distilled water:acetone. The test solution was prepared at the day of use.
(§2) Test solutions were prepared in general at a concentration of 2500ppm (wt/vol).
B.4. Yellow fever mosquito (Aedes aegypti)
For evaluating control of Yellow Fever Mosquito, the test unit consisted of 96-well-microtiter plates containing 200µl of tap water per well and 5-15 freshly hatched A. aegypti larvae. The active compounds were formulated using a solution containing 75% (v/v) water and 25% (v/v) DMSO. Different concentrations of formulated compounds or mixtures were sprayed onto the insect diet at 2.5µl, using a custom-built micro atomizer, at two replications.
After application, microtiter plates were incubated at 28 ± 1°C, 80 ± 5 % RH for 2 days. Larval mortality was then visually assessed.

Myzus persicae = assay: Green peach aphid (Myzus persicae), mixed life stages, systemic test via artificial diet under membrane; conditions: for mortality in comparison with untreated controls: 2500ppm, aphid mortality visually assessed after 3 days
Description: as §1, §2
B.2. Green peach aphid (Myzus persicae) (mixed life stages)
For evaluating control of Green Peach Aphid through systemic means the test unit consisted of 96-well-microtiter plates containing liquid artificial diet under an artificial membrane. The compounds were formulated using a solution containing 75% v/v water and 25% v/v DMSO. Different concentrations of formulated compounds were pipetted into the aphid diet, using a custom-built pipette, at two replications. After application, 5 - 8 adult aphids were placed on the artificial membrane inside the microtiter plate wells. The aphids were then allowed to suck on the treated aphid diet and incubated at about 23 ± 1°C and about 50 ± 5 % relative humidity for 3 days. Aphid mortality and fecundity was then visually assessed.

Heliothis virescens = assay: Tobacco budworm (Heliothis virescens) control, insect diet in 96-well microtiter plates; conditions: for mortality in comparison with untreated controls: 2500ppm, egg and larval mortality visually assessed after 5 days
Description: as §1, §2
B.3. Tobacco budworm (Heliothis virescens)
For evaluating control of Tobacco Budworm, the test unit consisted of 96-well-microtiter plates containing an insect diet and 15-25 H. virescens eggs. The compounds were formulated using a solution containing 75% v/v water and 25% v/v DMSO. Different concentrations of formulated compounds were sprayed onto the insect diet at 10µl, using a custom-built micro atomizer, at two replications. After application, microtiter plates were incubated at about 28 ± 1°C and about 80 ± 5 % relative humidity for 5 days. Egg and larval mortality was then visually assessed.

Anthonomus grandis = assay: Boll weevil (Anthonomus grandis) control, insect diet in 96-well microtiter plates; conditions: for mortality in comparison with untreated controls: 2500ppm, egg and larval mortality visually assessed after 5 days
Description: as §1, §2
B.1. Boll weevil (Anthonomus grandis)
For evaluating control of boll weevil, the test unit consisted of 96-well-microtiter plates containing an insect diet and 5-10 A. grandis eggs.
The compounds were formulated using a solution containing 75% v/v water and 25% v/v DMSO. Different concentrations of formulated compounds were sprayed onto the insect diet at 5µl, using a custom-built micro atomizer, at two replications.
After application, microtiter plates were incubated at about 25 ± 1°C and about 75 ± 5 % relative humidity for 5 days. Egg and larval mortality were then visually assessed.

Row | SMILES | mortality in comparison with untreated controls (Dichromothrips corbetti) | mortality in comparison with untreated controls (Spodoptera eridania) | mortality in comparison with untreated controls (Bemisia argentifolii) | mortality in comparison with untreated controls (Plutella xylostella) | mortality in comparison with untreated controls (Aedes aegypti) | mortality in comparison with untreated controls (Myzus persicae) | mortality in comparison with untreated controls (Heliothis virescens) | mortality in comparison with untreated controls (Anthonomus grandis) | mortality at 300 ppm (Dichromothrips corbetti; Dichromothrips corbetti, 72 h, read-out: mortality in comparison with untreated controls) [%] | mortality at 300 ppm (Spodoptera eridania; Spodoptera eridania, 96 h, read-out: mortality in comparison with untreated controls) [%] | mortality at 300 ppm (Bemisia argentifolii; Bemisia argentifolii, 72 h, read-out: mortality in comparison with untreated controls) [%] | mortality at 300 ppm (Plutella xylostella; Plutella xylostella, foliar, 72 h, read-out: mortality in comparison with untreated controls) [%] | mortality at 2500 ppm (Aedes aegypti; Aedes aegypti, 48 h, read-out: mortality in comparison with untreated controls) [%] | mortality at 2500 ppm (Myzus persicae; Myzus persicae, 72 h, read-out: mortality in comparison with untreated controls) [%] | mortality at 2500 ppm (Heliothis virescens; Heliothis virescens, 120 h, read-out: mortality in comparison with untreated controls) [%] | mortality at 2500 ppm (Anthonomus grandis; Anthonomus grandis, 120 h, read-out: mortality in comparison with untreated controls) [%]
1 | N#Cc1ccc(NC2=NOC(c3ccc(F)c(C(F)(F)F)c3)(C(F)(F)F)C2)cc1-n1cncn1 (stereo not drawn) [I-8] | at least 75% | at least 75% | at least 75% | at least 75% |  |  |  |  |  |  |  |  |  |  |  | 
2 | CCN(C1=NOC(c2ccc(F)c(Cl)c2)(C(F)(F)F)C1)c1ccc(C#N)c(-n2cncn2)c1 (stereo not drawn) [I-10] | at least 75% | at least 75% |  | at least 75% | at least 75% | at least 75% | at least 75% | at least 75% |  |  |  |  |  |  |  | 
3 | N#Cc1ccc(N(CC2CC2)C2=NOC(c3ccc(F)c(Cl)c3)(C(F)(F)F)C2)cc1-n1cncn1 (stereo not drawn) [I-11] | at least 75% | at least 75% |  | at least 75% | at least 75% | at least 75% | at least 75% | at least 75% |  |  |  |  |  |  |  | 
4 | C#CCN(C1=NOC(c2ccc(F)c(Cl)c2)(C(F)(F)F)C1)c1ccc(C#N)c(-n2cncn2)c1 (stereo not drawn) [I-12] | at least 75% | at least 75% |  | at least 75% | at least 75% | at least 75% | at least 75% | at least 75% |  |  |  |  |  |  |  | 
5 | Fc1c(Cl)cc(C2(C(F)(F)F)CC(Nc3ccc(Cl)c(-n4cncn4)c3)=NO2)cc1Cl (stereo not drawn) [I-13] |  | at least 75% | at least 75% | at least 75% | at least 75% | at least 75% | at least 75% | at least 75% |  |  |  |  |  |  |  | 
6 | Fc1c(Cl)cc(C2(C(F)(F)F)CC(Nc3ccc(Cl)c(-n4cc(C(F)(F)F)cn4)c3)=NO2)cc1Cl (stereo not drawn) [I-14, N-[4-chloro-3-[4-(trifluoromethyl)pyrazol-1-yl]phenyl]-5-(3,5-dichloro-4-fluoro-phenyl)-5-(trifluoromethyl)-4H-isoxazol-3-amine] |  |  |  |  |  |  |  |  | ≥ 75 | ≥ 75 | ≥ 75 | ≥ 75 | ≥ 75 | ≥ 75 | ≥ 75 | ≥ 75
7 | Fc1c(Cl)cc(C2(C(F)(F)F)CC(Nc3ccc(Cl)c(-n4ccc(C(F)(F)F)n4)c3)=NO2)cc1Cl (stereo not drawn) [I-15] | at least 75% | at least 75% | at least 75% |  | at least 75% |  | at least 75% |  |  |  |  |  |  |  |  | 
8 | CCN(C1=NOC(c2cc(Cl)c(F)c(Cl)c2)(C(F)(F)F)C1)c1ccc(Cl)c(-n2cncn2)c1 (stereo not drawn) [I-19] | at least 75% | at least 75% |  | at least 75% | at least 75% | at least 75% | at least 75% | at least 75% |  |  |  |  |  |  |  | 
9 | COCN(C1=NOC(c2cc(Cl)c(F)c(Cl)c2)(C(F)(F)F)C1)c1ccc(Cl)c(-n2cncn2)c1 (stereo not drawn) [I-21] | at least 75% | at least 75% | at least 75% | at least 75% | at least 75% | at least 75% | at least 75% | at least 75% |  |  |  |  |  |  |  | 
10 | CCOC(=O)N(C1=NOC(c2cc(Cl)c(F)c(Cl)c2)(C(F)(F)F)C1)c1ccc(Cl)c(-n2cncn2)c1 (stereo not drawn) [I-25] | at least 75% | at least 75% | at least 75% | at least 75% | at least 75% |  | at least 75% |  |  |  |  |  |  |  |  | 
